Eight compounds from ChEMBL document CHEMBL5465560, “Selectivity Literature for EUbOPEN Chemogenomic Library” (2024) can be followed below.

The target of experiment [1] is Ribosomal protein S6 kinase alpha-3 (Homo sapiens, UniProt P51812). In words: Selectivity interaction (Kinase panel (Z-LYTE Assay)) EUB0001632a RPS6KA3. Conditions: at 10 µM.
Experiment [2] deals with T1, Serine/threonine-protein kinase Nek10 (Homo sapiens) (UniProt Q6ZWH5).
T1 sequence (whole entry): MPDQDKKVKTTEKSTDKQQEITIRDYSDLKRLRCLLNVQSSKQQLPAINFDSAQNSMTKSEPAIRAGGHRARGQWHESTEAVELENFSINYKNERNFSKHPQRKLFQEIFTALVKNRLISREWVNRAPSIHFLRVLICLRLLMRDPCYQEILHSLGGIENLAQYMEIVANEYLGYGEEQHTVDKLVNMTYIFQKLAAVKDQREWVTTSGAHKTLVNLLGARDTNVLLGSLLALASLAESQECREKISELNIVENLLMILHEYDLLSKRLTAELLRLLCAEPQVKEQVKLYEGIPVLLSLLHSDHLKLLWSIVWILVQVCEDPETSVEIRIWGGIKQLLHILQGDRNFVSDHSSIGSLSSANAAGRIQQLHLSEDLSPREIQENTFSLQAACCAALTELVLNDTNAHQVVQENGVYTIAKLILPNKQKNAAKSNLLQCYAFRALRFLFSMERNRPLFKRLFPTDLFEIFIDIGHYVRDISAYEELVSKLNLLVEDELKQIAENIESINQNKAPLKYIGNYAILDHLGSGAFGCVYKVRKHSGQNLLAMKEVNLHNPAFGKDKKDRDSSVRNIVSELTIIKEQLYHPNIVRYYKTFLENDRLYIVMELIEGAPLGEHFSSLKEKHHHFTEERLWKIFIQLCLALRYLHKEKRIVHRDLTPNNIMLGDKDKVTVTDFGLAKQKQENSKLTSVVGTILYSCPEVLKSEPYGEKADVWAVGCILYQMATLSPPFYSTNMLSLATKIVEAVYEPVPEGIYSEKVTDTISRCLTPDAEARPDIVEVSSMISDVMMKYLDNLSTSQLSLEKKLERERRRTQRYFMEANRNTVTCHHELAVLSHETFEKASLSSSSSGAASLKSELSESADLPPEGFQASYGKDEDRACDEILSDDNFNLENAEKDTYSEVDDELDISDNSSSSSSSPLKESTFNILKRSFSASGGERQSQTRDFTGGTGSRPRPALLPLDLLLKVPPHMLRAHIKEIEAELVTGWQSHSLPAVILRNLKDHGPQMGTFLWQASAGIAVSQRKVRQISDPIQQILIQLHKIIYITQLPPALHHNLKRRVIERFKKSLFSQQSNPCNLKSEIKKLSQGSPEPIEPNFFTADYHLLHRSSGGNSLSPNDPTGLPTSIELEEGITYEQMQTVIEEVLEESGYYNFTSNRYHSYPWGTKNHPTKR
In words: Selectivity interaction (Ambit KINOMEscan and KiNATiv profiling in Jurkat cells) EUB0000090b NEK10. Format: cell-based. The settings on record: at 1 µM.

Experiment [3] concerns the target PAS domain-containing serine/threonine-protein kinase (Homo sapiens) (UniProt Q96RG2). Nature of the experiment: Selectivity interaction (SelectScreen profiling (Invitrogen)) EUB0000607a PASK. Conditions: at 2 µM.
Experiment [4] has as its target Phosphatidylinositol 4,5-bisphosphate 3-kinase catalytic subunit alpha isoform (Homo sapiens) (UniProt P42336). Conditions: at 10 µM.
Experiment [5] concerns the target T2, Megakaryocyte-associated tyrosine-protein kinase (Homo sapiens) (UniProt P42679).
T2 sequence (whole entry): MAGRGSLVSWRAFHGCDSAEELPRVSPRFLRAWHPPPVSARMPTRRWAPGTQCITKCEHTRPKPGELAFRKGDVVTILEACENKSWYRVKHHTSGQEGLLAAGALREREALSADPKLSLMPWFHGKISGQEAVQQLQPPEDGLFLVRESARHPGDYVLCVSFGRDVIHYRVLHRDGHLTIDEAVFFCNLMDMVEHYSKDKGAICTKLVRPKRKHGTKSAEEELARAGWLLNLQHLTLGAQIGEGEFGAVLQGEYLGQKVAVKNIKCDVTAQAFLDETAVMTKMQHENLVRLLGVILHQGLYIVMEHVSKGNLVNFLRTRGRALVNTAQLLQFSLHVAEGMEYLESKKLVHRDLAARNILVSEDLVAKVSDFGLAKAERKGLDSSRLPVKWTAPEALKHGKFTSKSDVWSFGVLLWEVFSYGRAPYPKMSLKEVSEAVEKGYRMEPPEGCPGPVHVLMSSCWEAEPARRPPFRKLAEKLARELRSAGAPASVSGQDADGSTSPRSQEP
In words: Selectivity interaction (KinomeScan (DiscoverX)) EUB0000655a MATK. Conditions: at 10 µM.

The target of experiment [6] is T2, Megakaryocyte-associated tyrosine-protein kinase (Homo sapiens). In words: Selectivity interaction (KinomeScan (DiscoverX)) EUB0001079a MATK. The settings on record: at 1 µM.
Experiment [7] addresses Ephrin type-A receptor 2 (Homo sapiens) (UniProt P29317). Nature of the experiment: Selectivity interaction (Kinase panel (literature)) EUB0001199aCl EPHA2. Conditions: at 1 µM.
Experiment [8] has as its target MAP kinase-interacting serine/threonine-protein kinase 1 (Homo sapiens) (UniProt Q9BUB5). In words: Selectivity interaction (ProQinase) EUB0000171b MKNK1.
Experiment [9] has as its target Serine/threonine-protein kinase PLK1 (Homo sapiens, UniProt P53350). Nature of the experiment: Selectivity interaction (KinomeScan (DiscoverX)) EUB0000595a PLK1. Conditions: at 10 µM.

MAP kinase-interacting serine/threonine-protein kinase 1 (Homo sapiens), sequence (Q9BUB5 whole entry, looked up): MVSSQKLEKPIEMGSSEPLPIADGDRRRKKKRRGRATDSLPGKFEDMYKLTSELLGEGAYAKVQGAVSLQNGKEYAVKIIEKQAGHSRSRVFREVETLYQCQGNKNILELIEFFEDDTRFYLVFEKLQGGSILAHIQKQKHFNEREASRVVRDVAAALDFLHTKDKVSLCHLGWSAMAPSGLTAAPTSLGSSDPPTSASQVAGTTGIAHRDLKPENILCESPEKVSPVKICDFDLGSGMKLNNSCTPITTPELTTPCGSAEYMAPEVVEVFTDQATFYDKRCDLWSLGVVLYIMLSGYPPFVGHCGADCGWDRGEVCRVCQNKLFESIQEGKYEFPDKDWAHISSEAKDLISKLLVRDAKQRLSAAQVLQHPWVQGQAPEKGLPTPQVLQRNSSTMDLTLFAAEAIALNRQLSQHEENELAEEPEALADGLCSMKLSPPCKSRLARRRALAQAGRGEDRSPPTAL
Ribosomal protein S6 kinase alpha-3, sequence (P51812 whole entry): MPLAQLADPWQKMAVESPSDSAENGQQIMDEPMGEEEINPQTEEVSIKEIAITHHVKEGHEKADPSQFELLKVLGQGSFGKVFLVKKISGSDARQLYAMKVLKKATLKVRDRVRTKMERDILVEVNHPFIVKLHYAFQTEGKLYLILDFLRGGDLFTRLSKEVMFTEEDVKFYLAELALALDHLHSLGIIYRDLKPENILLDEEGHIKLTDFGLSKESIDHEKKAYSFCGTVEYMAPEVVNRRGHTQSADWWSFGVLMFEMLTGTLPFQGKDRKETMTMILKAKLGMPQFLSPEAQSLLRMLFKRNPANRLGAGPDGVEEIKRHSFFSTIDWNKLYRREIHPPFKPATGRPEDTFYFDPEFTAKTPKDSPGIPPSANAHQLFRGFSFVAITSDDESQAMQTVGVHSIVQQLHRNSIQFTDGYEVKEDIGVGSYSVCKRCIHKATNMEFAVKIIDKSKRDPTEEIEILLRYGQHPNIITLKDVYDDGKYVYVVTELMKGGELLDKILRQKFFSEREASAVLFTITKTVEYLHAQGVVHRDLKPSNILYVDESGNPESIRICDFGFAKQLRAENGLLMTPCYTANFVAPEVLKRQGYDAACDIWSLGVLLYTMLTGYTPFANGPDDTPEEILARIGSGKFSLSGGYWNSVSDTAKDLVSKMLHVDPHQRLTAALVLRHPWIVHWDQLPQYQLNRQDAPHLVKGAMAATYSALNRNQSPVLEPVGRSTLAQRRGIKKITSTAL
PAS domain-containing serine/threonine-protein kinase (Homo sapiens), sequence (Q96RG2 whole entry, the tested form may be a part, canonical isoform): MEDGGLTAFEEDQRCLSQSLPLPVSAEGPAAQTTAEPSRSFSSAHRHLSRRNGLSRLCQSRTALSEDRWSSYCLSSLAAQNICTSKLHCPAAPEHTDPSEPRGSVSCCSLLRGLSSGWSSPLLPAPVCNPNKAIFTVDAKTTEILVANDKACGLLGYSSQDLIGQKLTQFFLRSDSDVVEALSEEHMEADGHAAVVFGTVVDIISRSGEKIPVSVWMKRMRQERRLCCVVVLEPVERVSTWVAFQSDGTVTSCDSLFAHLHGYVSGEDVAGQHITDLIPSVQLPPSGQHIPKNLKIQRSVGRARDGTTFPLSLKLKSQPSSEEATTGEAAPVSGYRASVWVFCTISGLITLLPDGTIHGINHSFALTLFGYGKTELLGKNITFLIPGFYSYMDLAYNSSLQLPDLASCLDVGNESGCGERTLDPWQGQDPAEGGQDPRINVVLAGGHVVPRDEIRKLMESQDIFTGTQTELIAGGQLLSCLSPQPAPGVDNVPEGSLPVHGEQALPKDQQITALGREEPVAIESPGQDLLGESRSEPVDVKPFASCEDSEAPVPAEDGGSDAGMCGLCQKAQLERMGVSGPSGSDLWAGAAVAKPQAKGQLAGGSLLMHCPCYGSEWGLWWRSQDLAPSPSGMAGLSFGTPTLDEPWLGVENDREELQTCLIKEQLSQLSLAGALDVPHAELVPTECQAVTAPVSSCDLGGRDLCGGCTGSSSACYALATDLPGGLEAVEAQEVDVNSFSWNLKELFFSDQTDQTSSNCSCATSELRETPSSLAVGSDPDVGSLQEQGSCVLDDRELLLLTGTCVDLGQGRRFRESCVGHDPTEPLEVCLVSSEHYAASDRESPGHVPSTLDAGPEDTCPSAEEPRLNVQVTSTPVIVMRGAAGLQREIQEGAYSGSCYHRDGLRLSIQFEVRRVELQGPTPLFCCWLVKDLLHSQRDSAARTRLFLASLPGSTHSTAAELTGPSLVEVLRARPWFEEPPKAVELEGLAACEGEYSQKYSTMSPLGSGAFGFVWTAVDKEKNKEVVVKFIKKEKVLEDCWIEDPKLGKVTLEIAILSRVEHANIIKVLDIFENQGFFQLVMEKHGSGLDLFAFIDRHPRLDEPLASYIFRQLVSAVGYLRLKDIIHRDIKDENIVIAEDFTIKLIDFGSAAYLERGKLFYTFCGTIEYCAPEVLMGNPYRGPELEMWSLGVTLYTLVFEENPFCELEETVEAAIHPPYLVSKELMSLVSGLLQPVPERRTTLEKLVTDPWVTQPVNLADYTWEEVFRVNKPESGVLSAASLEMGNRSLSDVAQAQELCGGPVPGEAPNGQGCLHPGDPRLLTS
Phosphatidylinositol 4,5-bisphosphate 3-kinase catalytic subunit alpha isoform (Homo sapiens), sequence (P42336 whole entry, canonical isoform): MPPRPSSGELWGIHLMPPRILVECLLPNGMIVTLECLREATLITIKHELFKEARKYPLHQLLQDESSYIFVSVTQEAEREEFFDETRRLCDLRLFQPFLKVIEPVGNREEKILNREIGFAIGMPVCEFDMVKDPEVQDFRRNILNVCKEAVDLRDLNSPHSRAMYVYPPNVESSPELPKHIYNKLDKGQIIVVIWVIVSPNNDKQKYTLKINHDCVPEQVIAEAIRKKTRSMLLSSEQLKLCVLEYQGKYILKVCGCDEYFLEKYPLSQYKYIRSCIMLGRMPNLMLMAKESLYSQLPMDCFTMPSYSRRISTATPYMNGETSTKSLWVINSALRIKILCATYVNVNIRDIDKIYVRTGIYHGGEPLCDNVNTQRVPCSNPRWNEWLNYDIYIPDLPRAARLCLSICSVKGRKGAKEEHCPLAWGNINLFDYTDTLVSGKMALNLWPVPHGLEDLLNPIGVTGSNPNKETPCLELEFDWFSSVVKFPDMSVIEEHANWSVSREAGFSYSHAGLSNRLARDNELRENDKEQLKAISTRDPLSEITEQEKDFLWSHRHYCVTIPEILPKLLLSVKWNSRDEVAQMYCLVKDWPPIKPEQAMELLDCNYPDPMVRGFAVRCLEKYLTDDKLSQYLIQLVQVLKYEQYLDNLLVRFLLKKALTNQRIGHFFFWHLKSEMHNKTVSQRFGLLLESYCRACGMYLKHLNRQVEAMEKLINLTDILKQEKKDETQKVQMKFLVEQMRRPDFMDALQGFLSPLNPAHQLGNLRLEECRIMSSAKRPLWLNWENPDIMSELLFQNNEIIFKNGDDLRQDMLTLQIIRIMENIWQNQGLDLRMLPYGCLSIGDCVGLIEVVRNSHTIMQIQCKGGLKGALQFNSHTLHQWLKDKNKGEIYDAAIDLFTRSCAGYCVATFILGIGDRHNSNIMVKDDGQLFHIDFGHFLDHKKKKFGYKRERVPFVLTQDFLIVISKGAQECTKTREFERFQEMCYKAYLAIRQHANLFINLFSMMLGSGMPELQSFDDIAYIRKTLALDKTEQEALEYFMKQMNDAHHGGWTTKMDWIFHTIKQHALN
Serine/threonine-protein kinase PLK1, sequence (P53350 whole entry): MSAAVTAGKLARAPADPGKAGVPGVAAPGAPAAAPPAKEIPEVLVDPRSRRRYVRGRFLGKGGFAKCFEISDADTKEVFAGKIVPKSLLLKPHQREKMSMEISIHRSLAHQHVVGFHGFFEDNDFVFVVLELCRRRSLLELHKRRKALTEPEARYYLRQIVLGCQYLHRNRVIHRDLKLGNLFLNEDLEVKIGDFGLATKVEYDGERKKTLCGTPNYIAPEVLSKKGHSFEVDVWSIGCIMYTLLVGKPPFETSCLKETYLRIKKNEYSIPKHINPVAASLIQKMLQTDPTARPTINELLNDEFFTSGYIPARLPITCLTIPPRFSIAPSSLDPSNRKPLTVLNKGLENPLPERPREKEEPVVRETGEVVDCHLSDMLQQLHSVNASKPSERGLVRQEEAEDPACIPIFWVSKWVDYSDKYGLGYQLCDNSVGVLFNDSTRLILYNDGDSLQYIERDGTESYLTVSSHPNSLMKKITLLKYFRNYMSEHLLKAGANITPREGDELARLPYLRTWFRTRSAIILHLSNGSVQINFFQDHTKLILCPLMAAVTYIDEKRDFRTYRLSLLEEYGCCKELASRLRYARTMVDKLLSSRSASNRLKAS

As for `Cn1cc(-n2cnc3c(NCc4nc5cc(Cl)c(Cl)cc5[nH]4)nc(N4CCOCC4)nc32)cn1`, the % of control in experiment [1] came to 4.92%. Consider `CN(C)C/C=C/C(=O)Nc1ccc(C(=O)N2CCCC(Nc3ncc(Cl)c(-c4c[nH]c5ccccc45)n3)C2)cc1` (stereo not given), for which, in experiment [2], the % of control was determined as 100%. In turn, `CNC(=O)Nc1ccc(-c2nc(N3CC4CCC(C3)O4)c3cnn(C4CCC5(CC4)OCCO5)c3n2)cc1` displayed a % of inhibition in experiment [3] of 3%. The compound further gave a % of control in experiment [4] of 16%. For `CN(C)CCOc1ccc(-c2nc(-c3ccncc3)c(-c3ccc4c(c3)CC/C4=N\O)[nH]2)cc1`, the % of control in experiment [5] was 100%. In [6], `Nc1cnc(N2CCc3cc(S(=O)(=O)Nc4c(F)cc(Cl)cc4F)cc(N4CCCC4=O)c32)nc1` [TP-020n] gave a % of control of 100%. As to `CN1Cc2nccc(-c3cn(C)nc3-c3ccc(F)cc3)c2C1=O`, the % of inhibition in experiment [7] worked out at 4%. For `C=CC(=O)Nc1cccc(C(=O)Nc2ccc(Nc3cc(-c4[nH]c(SC)nc4C)ccn3)cc2)c1`, the % of control in [8] (at 1 µM) was determined as 90%; in experiment [8] (at 5 µM), 55%. For `COCC(=O)NC/C=C/c1ccc2ncnc(Nc3ccc(Oc4ccc(C)nc4)c(C)c3)c2c1` [CP-724714], in [9], the % of control was found to be 81%.
